Measurements from patent US10568886B2, “Targeting Cyb5R3” (University of Pittsburgh—Of the Commonwealth System of …, priority 2014, dated 2020).

Key:
oxidized sGC = test: Purified Cyb5R3/oxidized sGC cGMP assay stimulated with Bay 58-2667; format: biochemical; conditions: 100 nM Bay 58-2667, in the presence of Cyb5R3
Experimental: FIG. 4. Purified Cyb5R3 directly reduces oxidized sGC resulting in limited stimulation by the sGC activator Bay 58-2667. Purified Cyb5R3, Cyb5b and oxidized sGC were mixed and incubated in trienthanolamine buffer, DTT (positive control), ZINC 747 (Cyb5R3 inhibitor), +/−NADH (required co-factor for Cyb5R3) in the absence of oxygen. Samples were then combined with GTP, and Mn^2+ followed by stimulation with 100 nM Bay 58-2667. After 5 min, reactions were stopped and samples were measured for cGMP. Quantification of cGMP is shown in the graph (n=2). Error bars represent s.e.m.

primary rat VSMs = test: Rescue of sGC protein degradation by Bay 58-2667 in VSMs (Western blot); format: cell-based; conditions: Cyb5R3 knockdown or ZINC 747 treated VSMs
Excerpt: FIG. 7. Bay 58-2667 rescues sGC protein degradation following Cyb5R3 knockdown or activity inhibition. a, Western blot analysis for sGC expression in primary rat VSMs treated with and without Bay 58-2667 following Cyb5R3 knockdown or with ZINC 39395747 (b). Quantification of sGC expression is shown in the graph below (n=2). Error bars represent s.e.m.
It was therefore tested if Bay 58 2667 could rescue the effects caused by decreased Cyb5R3 expression and activity.

[1] = tested on: sGC-Cyb5R3 macromolecular complexes; test: Proximity ligation assay for sGC-Cyb5R3 complexes in VSMs; format: cell-based; conditions: ODQ 10 μM, 10 min, primary rat aortic VSMs
Excerpt: FIG. 2. […] Cells were then subjected to a proximity ligation assay and imaged using confocal microscopy for sGC-Cyb5R3 macromolecular complexes (red punctates). Quantification of complexes per nuclei is shown in graph (n=3). **** indicates significance of <0.0001 and error bars are s.e.m. […] Following ODQ treatment, VSMs were fixed and subjected to a proximity ligation assay (PLA) to determine the association between oxidized sGC and Cyb5R3.

purified human CyB5R3 [2] = biological target: T1, purified human CyB5R3 (Homo sapiens, UniProt P00387); test: NADH-ferricyanide reductase activity inhibition assay with purified Cyb5R3; format: biochemical; conditions: for Cyb5R3 inhibitory activity, SAR trend of phenyl substituents: para position: carbon, chlorine, bromine
T1 construct: His6 (N); made in house; host or cells: E. coli SoluBL21 (Genlantis)
T1 sequence (P00387 1-301): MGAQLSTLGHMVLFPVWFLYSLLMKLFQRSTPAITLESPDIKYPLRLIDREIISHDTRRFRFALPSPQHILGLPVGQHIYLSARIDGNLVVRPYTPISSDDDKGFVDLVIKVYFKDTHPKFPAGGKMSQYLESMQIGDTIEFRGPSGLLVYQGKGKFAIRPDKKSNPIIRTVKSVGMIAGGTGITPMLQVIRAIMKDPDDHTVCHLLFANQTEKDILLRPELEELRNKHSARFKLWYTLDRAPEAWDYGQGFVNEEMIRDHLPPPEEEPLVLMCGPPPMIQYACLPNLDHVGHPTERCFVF
Experimental: FIG. 13. […] Primary screen using purified human CyB5R3 was incubated with each compound (500 μM) followed by activity measurements with an NADH-ferricyanide reductase assay. […] Purified proteins were prepared as previously described in Sparacino-Watkins et al. Briefly, human Cyb5R3 gene was cloned into the pET28a plasmid containing a His6 tag on the N-terminus of Cyb5R3. The plasmid was transformed into SoluBL21 cells (Genlantis) and protein purification was carried out as previously described. […] Chromatographic separation was conducted with an Äkta-Purifier FPLC (GE Healthcare Life Sciences, USA) running Unicorn software version 5.1. Metal affinity chromatography resin, Ni-NTA superflow (Qiagen), was packed into a XK 26/20 column (GE). Protein identity was confirmed with liquid chromatography and tandem mass spectrometry (LC-MS/MS, University of Pittsburgh Genome and Protein Core Facilities). The NADH-ferricyanide reductase activity for purified Cyb5R3 was assayed by spectrophotometric measurements using the rate of potassium ferricyanide reduction at 420 nm, according to Strittmatter and […]. […] The reaction was started by addition of cofactor NADH and reduction of ferricyanide was followed for 2 min by recording the absorbance decrease at 420 nm using Cary 50 spectrophotometer and small glass cuvettes with a 0.2 cm path length. Since NADH has partial reduction power independent of Cyb5R3, the reaction rate was corrected by subtracting the reaction rate of ferricyanide in the absence of enzyme. The enzyme activity was calculated using the extinction coefficient of 1.02 mM^-1 cm^-1 for the difference in absorbance between reduced and oxidized form of ferricyanide. In order to observe the inhibitory effect of each Cyb5R3 small molecule inhibitor, the compounds were pre-incubated with Cyb5R3 at 37° C. for 15 minutes followed by measurements in NADH-ferricyanide reductase activity as described above.

purified human CyB5R3 [3] = biological target: T1, purified human CyB5R3; test: as above; format: biochemical; conditions: 50 μM of each compound
Cyb5R3 = conditions: previous studies; cited from earlier work

SMILES | inhibition of CyB5R3, secondary screen (purified human CyB5R3 [3]) | inhibition of CyB5R3, primary screen (purified human CyB5R3 [2]; 500 μM of each compound) | other results
O=C(O)CCCCN(CCc1ccccc1OCc1ccc(CCc2ccccc2)cc1)Cc1ccc(C(=O)O)cc1 [Bay 58-2667, cinaciguat] | – | – | cGMP production on Bay 58-2667 stimulation (oxidized sGC): does not increase cGMP production; sGC protein levels (primary rat VSMs): restoration of sGC protein levels
O=c1onc2cnc3ccccc3n12 [ODQ, 1H-(1,2,4)oxadiazolo[4,3-a]quinoxalin-1-one] | – | – | number of sGC-Cyb5R3 macromolecular complexes [1]: increases number of macromolecular complexes
CCCc1cc(=O)[nH]c(=S)[nH]1 [PTU, propylthiouracil, reference compound] | little inhibition | – | inhibition at 500 µM (purified human CyB5R3 [2]; 500 μM of each compound, read-out: inhibition of CyB5R3, primary screen): ~100%; concentration showing inhibition of Cyb5R3 (Cyb5R3): approximately 275 μM
O=c1cc(CSc2ccccc2)[nH]c(=S)[nH]1 [ZINC05626394] | 100% | 100% | –
C[C@@H]1N=C(CSc2ccccc2)CC(=O)N1 [ZINC05774833] | – | abolished all inhibitory effects | –
Cc1ccc(SCc2cc(=O)[nH]c(=S)[nH]2)cc1 [ZINC06493891] | – | – | Cyb5R3 inhibitory activity, SAR trend of phenyl substituents (purified human CyB5R3 [2]): activity increases with atomic mass
CCCCCOc1cc(=O)[nH]c(=S)[nH]1 [ZINC13957379] | – | 100% | –
O=c1cc(CSc2ccc(Br)cc2)[nH]c(=S)[nH]1 [ZINC15987502] | – | – | Cyb5R3 inhibitory activity, SAR trend of phenyl substituents (purified human CyB5R3 [2]): activity increases with atomic mass
O=c1cc(CSc2ccccc2)[nH]c(=O)[nH]1 [ZINC17744101] | 50% | 100% | –
CC(C)SCc1cc(=O)[nH]c(=S)[nH]1 [ZINC31773411] | – | 100% | –
